Experimental findings from patent US10513567B2, “Polycations and methods of making and using thereof” (Georgia Tech Research Corporation, priority 2016, dated 2019) are described below.

The nature of this data set: Fragmentation (hydrolysis) of WCL pyridine adducts and oligocations in deuterated aqueous buffer followed by 1H NMR. Format: physicochemical. Here is the method: The fragmentation of cationic adducts was followed by ^1H NMR in deuterated buffer, with the relative concentration of each species established by integration of unique resonances. Each adduct in Table 3 and Table 4 was thus examined in three independent runs.
Each adduct dinitrate was isolated, characterized, and heated at 50° C. in deuterated buffer; following the disappearance of the adduct by NMR, first-order rate constants of fragmentation were obtained.
Using the conditions of Table 4, three additional oligocations were prepared from the bis(pyridine) linkers as shown in Table 5. […] The stabilities of these compounds toward fragmentation under aqueous conditions were assessed by NMR in deuterated buffer, following the disappearance of the thiabicyclononane C—H resonance adjacent to the pyridine group (position g in FIG. 14) and the appearance of the corresponding resonance (4.3 ppm) for the diol product 4 (FIG. 6).

For `COc1cc(Br)c[n+](C2CCC3SC2CCC3[n+]2cc(Br)cc(OC)c2)c1.O=[N+]([O-])[O-].O=[N+]([O-])[O-]` (centres unmarked) [Compound 5i, 2,6-di-3-bromo-5-methoxylpyridinium-9-thiabicyclo[3.3.1]nonane dinitrate], the “kfrag, pseudo first order fragmentation” value was “(0.55 ± 0.04) × 10^−2 h^−1” (37° C.) and “(7.51 ± 0.53) × 10^−2 h^−1” (50° C., deuterated buffer). Also, the krel (37° C., relative to 5i) is on record as 1.

With `COC(=O)c1cc(Br)c[n+](C2CCC3SC2CCC3[n+]2cc(Br)cc(C(=O)OC)c2)c1.O=S(=O)([O-])C(F)(F)F.O=S(=O)([O-])C(F)(F)F` (centres unmarked) [Compound 5l, 2,6-di-3-bromo-5-methoxycarbonylpyridinium-9-thiabicyclo[3.3.1]nonane ditriflate], the “kfrag, pseudo first order fragmentation” value (37° C.) was “(10.9 ± 1.81) × 10^−2 h^−1”. Moreover, where the note is “37° C., relative to 5i”, the krel turned out to be 20.

Take `NC(=O)c1cc[n+](C2CCC3SC2CCC3[n+]2ccc(C(N)=O)cc2)cc1.O=[N+]([O-])[O-].O=[N+]([O-])[O-]` (centres unmarked) [Compound 5e, 2,6-di-4-carbamylpyridinium-9-thiabicyclo[3.3.1]nonane dinitrate]: the “kfrag, pseudo first order fragmentation” value (50° C., deuterated buffer) is “(1.62 ± 0.10) × 10^−2 h^−1”. Moreover, the krel (50° C., relative to 5e) is reported as 1.00.

Consider `COC(=O)c1cc[n+](C2CCC3SC2CCC3[n+]2ccc(C(=O)OC)cc2)cc1.O=[N+]([O-])[O-].O=[N+]([O-])[O-]` (centres unmarked) [Compound 5c, 2,6-di-4-methoxycarbonylpyridinium-9-thiabicyclo[3.3.1]nonane dinitrate], for which the “kfrag, pseudo first order fragmentation” value runs as follows: (37° C.) “(0.16 ± 0.01) × 10^−2 h^−1”; (50° C., deuterated buffer) “(3.66 ± 0.33) × 10^−2 h^−1”. The compound further registered a krel (37° C., relative to 5i) of 0.3.

As to `FC(F)(F)c1ccc[n+](C2CCC3SC2CCC3[n+]2cccc(C(F)(F)F)c2)c1.O=[N+]([O-])[O-].O=[N+]([O-])[O-]` (centres unmarked) [Compound 5g, 2,6-di-3-trifluoromethylpyridinium-9-thiabicyclo[3.3.1]nonane dinitrate], the “kfrag, pseudo first order fragmentation” value by setting is: (37° C.) “(5.87 ± 0.71) × 10^−2 h^−1”; (50° C., deuterated buffer) “(74.8 ± 5.4) × 10^−2 h^−1”. Besides, under “37° C., relative to 5i”, the krel is listed as 11.

Turning to `COC(=O)c1ccc[n+](C2CCC3SC2CCC3[n+]2cccc(C(=O)OC)c2)c1.O=[N+]([O-])[O-].O=[N+]([O-])[O-]` (centres unmarked) [Compound 5b, 2,6-di-3-methoxycarbonylpyridinium-9-thiabicyclo[3.3.1]nonane dinitrate], for the setting “50° C., deuterated buffer”, the “kfrag, pseudo first order fragmentation” value is “(3.03 ± 0.38) × 10^−2 h^−1”.

On to `NC(=O)c1ccc[n+](C2CCC3SC2CCC3[n+]2cccc(C(N)=O)c2)c1.O=[N+]([O-])[O-].O=[N+]([O-])[O-]` (centres unmarked) [Compound 5d, 2,6-di-3-carbamylpyridinium-9-thiabicyclo[3.3.1]nonane dinitrate], for which the “kfrag, pseudo first order fragmentation” value (50° C., deuterated buffer) is recorded as “(3.18 ± 0.32) × 10^−2 h^−1”.

With `NC(=O)c1cc(Br)c[n+](C2CCC3SC2CCC3[n+]2cc(Br)cc(C(N)=O)c2)c1.O=S(=O)([O-])C(F)(F)F.O=S(=O)([O-])C(F)(F)F` (centres unmarked) [Compound 5j, 2,6-di-3-bromo-5-carbamylpyridinium-9-thiabicyclo[3.3.1]nonane ditriflate], the “kfrag, pseudo first order fragmentation” value (37° C.) is “(9.34 ± 0.87) × 10^−2 h^−1”. The krel (37° C., relative to 5i) is recorded as 17.

Turning to `Brc1ccc[n+](C2CCC3SC2CCC3[n+]2cccc(Br)c2)c1.O=[N+]([O-])[O-].O=[N+]([O-])[O-]` (centres unmarked) [Compound 5f, 2,6-di-3-bromopyridinium-9-thiabicyclo[3.3.1]nonane dinitrate], under “50° C., deuterated buffer”, the “kfrag, pseudo first order fragmentation” value was “(6.59 ± 0.58) × 10^−2 h^−1”.

`COC(=O)c1cc(C(=O)OC)c[n+](C2CCC3SC2CCC3[n+]2cc(C(=O)OC)cc(C(=O)OC)c2)c1.O=S(=O)([O-])C(F)(F)F.O=S(=O)([O-])C(F)(F)F` (centres unmarked) [Compound 5k, 2,6-di-3,5-dimethoxycarbonylpyridinium-9-thiabicyclo[3.3.1]nonane ditriflate]: the “kfrag, pseudo first order fragmentation” value (37° C.) is on record as “(11.9 ± 1.13) × 10^−2 h^−1”. Moreover, the krel (37° C., relative to 5i) came to 22.

Take `N#Cc1ccc[n+](C2CCC3SC2CCC3[n+]2cccc(C#N)c2)c1.O=[N+]([O-])[O-].O=[N+]([O-])[O-]` (centres unmarked) [Compound 5h, 2,6-di-3-cyanopyridinium-9-thiabicyclo[3.3.1]nonane dinitrate]: the “kfrag, pseudo first order fragmentation” value runs as follows: (37° C.) “(1.14 ± 0.16) × 10^−2 h^−1”; (50° C., deuterated buffer) “(10.8 ± 0.98) × 10^−2 h^−1”. The krel (37° C., relative to 5i) is listed as 2.1.
